The values that follow come from PMC5218480 (PLoS ONE, 2017).

The test system of the experiment is MV-4-11 cells. Description: Gene expression microarray analysis (Affymetrix PrimeView) and GSEA. In kind it is cell-based, human. Further details: RFU PODN (11730768_x_at) / Fold change /veh PODN (11730768_x_at) / RFU LINC00158 (11744669_a_at) / Fold change /veh LINC00158 (11744669_a_at) / RFU DUSP10 (11751237_a_at) / Fold change /veh DUSP10 (11751237_a_at) / RFU ID3 (11757404_x_at) / Fold change /veh ID3 (11757404_x_at) / RFU PLEKHG5 (11737974_s_at) / Fold change /veh PLEKHG5 (11737974_s_at) / RFU LRRC4B (11730491_at) / Fold change /veh LRRC4B (11730491_at) / RFU GIMAP4 (11747438_a_at) / Fold change /veh GIMAP4 (11747438_a_at) / RFU KRT8 (11758183_x_at) / Fold change /veh KRT8 (11758183_x_at) / RFU CNN1 (11734310_a_at) / Fold change /veh CNN1 (11734310_a_at) / RFU VPS37D (11726825_at) / Fold change /veh VPS37D (11726825_at) / RFU C10orf10 (11716522_x_at) / Fold change /veh C10orf10 (11716522_x_at) / RFU KIR2DL2 /// KIR2DL4 /// KIR2DL5A /// KIR2DL5B /// KIR2DS1 /// KIR2DS2 /// KIR2DS3 /// KIR2DS4 /// KIR3DL3 /// KIR3DL3 /// KIR3DS1 (11738374_at) / Fold change /veh KIR2DL2 /// KIR2DL4 /// KIR2DL5A /// KIR2DL5B /// KIR2DS1 /// KIR2DS2 /// KIR2DS3 /// KIR2DS4 /// KIR3DL3 /// KIR3DL3 /// KIR3DS1 (11738374_at) / RFU C1QL1 (11718748_at) / Fold change /veh C1QL1 (11718748_at) / RFU TMPRSS4 (11747572_a_at) / Fold change /veh TMPRSS4 (11747572_a_at) / RFU HAMP (11756126_x_at) / Fold change /veh HAMP (11756126_x_at) / RFU RNFT2 (11725882_a_at) / Fold change /veh RNFT2 (11725882_a_at) / RFU NR4A2 (11747474_a_at) / Fold change /veh NR4A2 (11747474_a_at) / RFU ABCC12 (11746883_a_at) / Fold change /veh ABCC12 (11746883_a_at) / RFU TMEM136 (11760407_x_at) / Fold change /veh TMEM136 (11760407_x_at) / RFU CLDN22 /// WWC2 (11732394_at) / Fold change /veh CLDN22 /// WWC2 (11732394_at) / RFU HLA-DPB1 (11760878_x_at) / Fold change /veh HLA-DPB1 (11760878_x_at) / RFU SPINT1 (11716480_a_at) / Fold change /veh SPINT1 (11716480_a_at) / RFU GAP43 (11754022_s_at) / Fold change /veh GAP43 (11754022_s_at) / RFU A4GNT (11735810_at) / Fold change /veh A4GNT (11735810_at) / RFU PRB3 (11715151_x_at) / Fold change /veh PRB3 (11715151_x_at) / RFU TUBB4B (11761932_at) / Fold change /veh TUBB4B (11761932_at) / RFU CAPN14 (11732068_a_at) / Fold change /veh CAPN14 (11732068_a_at) / RFU TMCC2 (11721928_a_at) / Fold change /veh TMCC2 (11721928_a_at) / RFU IRGQ (11745062_a_at) / Fold change /veh IRGQ (11745062_a_at) / RFU FAM174B (11720279_a_at) / Fold change /veh FAM174B (11720279_a_at) / RFU TMPRSS4 (11748680_a_at) / Fold change /veh TMPRSS4 (11748680_a_at) / RFU FAM212B (11763350_a_at) / Fold change /veh FAM212B (11763350_a_at) / RFU PLEKHG5 (11743358_a_at) / Fold change /veh PLEKHG5 (11743358_a_at) / RFU ZSCAN30 (11745921_a_at) / Fold change /veh ZSCAN30 (11745921_a_at) / RFU CMKLR1 (11741424_a_at) / Fold change /veh CMKLR1 (11741424_a_at) / RFU LOC101060620 /// MAPK8IP1 (11723275_at) / Fold change /veh LOC101060620 /// MAPK8IP1 (11723275_at) / RFU SPTSSB (11747773_x_at) / Fold change /veh SPTSSB (11747773_x_at) / RFU PRSS12 (11739890_at) / Fold change /veh PRSS12 (11739890_at) / RFU BIN1 (11741810_x_at) / Fold change /veh BIN1 (11741810_x_at) / RFU WNT11 (11732464_a_at) / Fold change /veh WNT11 (11732464_a_at) / RFU C10orf10 (11716521_a_at) / Fold change /veh C10orf10 (11716521_a_at) / RFU C5orf56 (11738089_at) / Fold change /veh C5orf56 (11738089_at) / RFU CYB561 (11721691_x_at) / Fold change /veh CYB561 (11721691_x_at) / RFU ANKRD19P (11752326_a_at) / Fold change /veh ANKRD19P (11752326_a_at) / RFU OR2T12 /// OR2T33 /// OR2T8 (11738714_s_at) / Fold change /veh OR2T12 /// OR2T33 /// OR2T8 (11738714_s_at) / RFU VCAN (11748164_a_at) / Fold change /veh VCAN (11748164_a_at) / RFU JSRP1 (11732532_at) / Fold change /veh JSRP1 (11732532_at) / RFU KRTAP10-11 (11738290_x_at) / Fold change /veh KRTAP10-11 (11738290_x_at) / RFU MYO3A (11730013_a_at) / Fold change /veh MYO3A (11730013_a_at) / RFU EBF3 (11725865_a_at) / Fold change /veh EBF3 (11725865_a_at) / RFU CAMK2N1 (11719241_x_at) / Fold change /veh CAMK2N1 (11719241_x_at) / RFU C5orf56 (11738088_a_at) / Fold change /veh C5orf56 (11738088_a_at) / RFU OLFML3 (11715873_a_at) / Fold change /veh OLFML3 (11715873_a_at) / RFU LOC100653217 /// NTM (11731650_a_at) / Fold change /veh LOC100653217 /// NTM (11731650_a_at) / RFU MAPK11 (11762145_a_at) / Fold change /veh MAPK11 (11762145_a_at) / RFU FIZ1 (11724087_x_at) / Fold change /veh FIZ1 (11724087_x_at) / RFU OASL (11726364_x_at) / Fold change /veh OASL (11726364_x_at) / RFU SOX15 (11748057_x_at) / Fold change /veh SOX15 (11748057_x_at) / RFU CD79A (11719716_a_at) / Fold change /veh CD79A (11719716_a_at) / RFU HIST1H1D (11736915_at) / Fold change /veh HIST1H1D (11736915_at) / RFU CASKIN2 (11723855_a_at) / Fold change /veh CASKIN2 (11723855_a_at) / RFU LOC730098 (11760151_x_at) / Fold change /veh LOC730098 (11760151_x_at) / RFU OR4N2 (11742367_at) / Fold change /veh OR4N2 (11742367_at) / RFU PRRT2 (11749266_a_at) / Fold change /veh PRRT2 (11749266_a_at) / RFU SNX32 (11753110_a_at) / Fold change /veh SNX32 (11753110_a_at) / RFU CDHR5 (11726645_a_at) / Fold change /veh CDHR5 (11726645_a_at) / RFU RCAN1 (11760418_a_at) / Fold change /veh RCAN1 (11760418_a_at) / RFU FAM167A (11723789_a_at) / Fold change /veh FAM167A (11723789_a_at) / RFU FAM26E (11764081_at) / Fold change /veh FAM26E (11764081_at) / RFU ISYNA1 (11749810_s_at) / Fold change /veh ISYNA1 (11749810_s_at) / RFU ACY1 (11761880_at) / Fold change /veh ACY1 (11761880_at) / RFU 11764098_at / Fold change /veh 11764098_at / RFU SAMD14 (11745864_x_at) / Fold change /veh SAMD14 (11745864_x_at) / RFU NPB (11741838_a_at) / Fold change /veh NPB (11741838_a_at) / RFU TMPRSS6 (11731388_a_at) / Fold change /veh TMPRSS6 (11731388_a_at) / RFU KRTAP10-2 (11738614_at) / Fold change /veh KRTAP10-2 (11738614_at) / RFU ARHGAP8 /// PRR5-ARHGAP8 (11727945_x_at) / Fold change /veh ARHGAP8 /// PRR5-ARHGAP8 (11727945_x_at) / RFU KRTAP5-7 /// NADSYN1 (11734609_at) / Fold change /veh KRTAP5-7 /// NADSYN1 (11734609_at) / RFU RASL12 (11751679_a_at) / Fold change /veh RASL12 (11751679_a_at) / RFU CDKN2B (11736163_a_at) / Fold change /veh CDKN2B (11736163_a_at) / RFU PRF1 (11729649_at) / Fold change /veh PRF1 (11729649_at) / RFU, ZNF638 /// ZNF638-IT1 / Fold change vs veh, ZNF638 /// ZNF638-IT1 / RFU, PANK3 / Fold change vs veh, PANK3 / RFU, SH3YL1 / Fold change vs veh, SH3YL1 / RFU, ZEB2 / Fold change vs veh, ZEB2 / RFU, NRIP1 / Fold change vs veh, NRIP1 / RFU, PTTG1IP / Fold change vs veh, PTTG1IP / RFU, CAPN2 / Fold change vs veh, CAPN2 / RFU, MED14 / Fold change vs veh, MED14 / RFU, SNORA58 / Fold change vs veh, SNORA58 / RFU, C1orf63 / Fold change vs veh, C1orf63 / RFU, LRRFIP1 / Fold change vs veh, LRRFIP1 / RFU, NDUFAF7 / Fold change vs veh, NDUFAF7 / RFU, SLC12A2 / Fold change vs veh, SLC12A2 / RFU, IBTK / Fold change vs veh, IBTK / RFU, ESF1 / Fold change vs veh, ESF1 / Fold change vs veh, TMEM50B / RFU, TAOK1 / Fold change vs veh, TAOK1 / RFU, ACBD3 / Fold change vs veh, ACBD3 / RFU, TMA16 / Fold change vs veh, TMA16 / RFU, RWDD3 / Fold change vs veh, RWDD3 / RFU, BCAT1 / Fold change vs veh, BCAT1 / RFU, EDEM3 / Fold change vs veh, EDEM3 / RFU, TMEM33 / Fold change vs veh, TMEM33 / RFU, WDR75 / Fold change vs veh, WDR75 / RFU, AHCTF1 / Fold change vs veh, AHCTF1 / RFU, TFRC / Fold change vs veh, TFRC / RFU, ZDHHC17 / Fold change vs veh, ZDHHC17 / RFU, NOM1 / Fold change vs veh, NOM1 / RFU, ARL8B / Fold change vs veh, ARL8B / RFU, ZBTB11 / Fold change vs veh, ZBTB11 / RFU, TAMM41 / Fold change vs veh, TAMM41 / RFU, KIAA1704 /// LOC100996395 / Fold change vs veh, KIAA1704 /// LOC100996395 / RFU, ING1 / Fold change vs veh, ING1 / RFU, TRMT61B / Fold change vs veh, TRMT61B / RFU, FUBP3 / Fold change vs veh, FUBP3 / RFU, TP53 / Fold change vs veh, TP53 / RFU, TNKS2 / Fold change vs veh, TNKS2 / RFU, ZFP14 / Fold change vs veh, ZFP14 / RFU, ACTR2 / Fold change vs veh, ACTR2 / RFU, PPP3R1 / Fold change vs veh, PPP3R1 / RFU, PIK3R1 / Fold change vs veh, PIK3R1 / RFU, HNRNPA1 / Fold change vs veh, HNRNPA1 / RFU, RNF170 / Fold change vs veh, RNF170 / RFU, ZNF28 / Fold change vs veh, ZNF28 / RFU, RNGTT / Fold change vs veh, RNGTT / RFU, OGT / Fold change vs veh, OGT / RFU, BRD1 / Fold change vs veh, BRD1 / RFU, MARS / Fold change vs veh, MARS / RFU, ZNF655 / Fold change vs veh, ZNF655 / RFU, FAHD1 / Fold change vs veh, FAHD1 / RFU, BDP1 / Fold change vs veh, BDP1 / RFU, LRRCC1 / Fold change vs veh, LRRCC1 / RFU, ARID1A / Fold change vs veh, ARID1A / RFU, ZNF146 / Fold change vs veh, ZNF146 / RFU, ZNF330 / Fold change vs veh, ZNF330 / RFU, GPN3 / Fold change vs veh, GPN3 / RFU, C9orf123 / Fold change vs veh, C9orf123 / RFU, N4BP2L2 / Fold change vs veh, N4BP2L2 / RFU, ARFIP1 / Fold change vs veh, ARFIP1 / RFU, FAM179B / Fold change vs veh, FAM179B / RFU, BCL10 / Fold change vs veh, BCL10 / RFU, UHRF1BP1L / Fold change vs veh, UHRF1BP1L / RFU, BET1 / Fold change vs veh, BET1 / RFU, CNOT2 / Fold change vs veh, CNOT2 / RFU, ZNF268 / Fold change vs veh, ZNF268 / Fold change vs veh, ZNF507 / RFU, DGCR2 / Fold change vs veh, DGCR2 / RFU, WDSUB1 / Fold change vs veh, WDSUB1 / Fold change vs veh, HSP90B1 /// MIR3652 / RFU, ADSS / Fold change vs veh, ADSS / RFU, GK / Fold change vs veh, GK / RFU, ZNF148 / Fold change vs veh, ZNF148 / RFU, TAF9 / Fold change vs veh, TAF9 / RFU, SLC1A5 / Fold change vs veh, SLC1A5 / RFU, SLMO2 / Fold change vs veh, SLMO2 / RFU, ABCC4 / Fold change vs veh, ABCC4 / RFU, LOC101060439 /// RAP1B / Fold change vs veh, LOC101060439 /// RAP1B / RFU, RFX7 / Fold change vs veh, RFX7 / RFU, GTPBP10 / Fold change vs veh, GTPBP10 / RFU, CNEP1R1 / Fold change vs veh, CNEP1R1 / RFU, BIVM-ERCC5 /// ERCC5 / Fold change vs veh, BIVM-ERCC5 /// ERCC5 / RFU, ILF3 / Fold change vs veh, ILF3 / RFU 11762660_at / Fold change /veh 11762660_at / RFU VCAN (11757783_s_at) / Fold change /veh VCAN (11757783_s_at) / RFU DDX43 (11728927_at) / Fold change /veh DDX43 (11728927_at) / RFU KRT8 (11758188_x_at) / Fold change /veh KRT8 (11758188_x_at) / RFU NKD1 (11759106_at) / Fold change /veh NKD1 (11759106_at) / RFU SRD5A1 (11742802_a_at) / Fold change /veh SRD5A1 (11742802_a_at) / RFU TPSAB1 /// TPSB2 (11721975_s_at) / Fold change /veh TPSAB1 /// TPSB2 (11721975_s_at) / RFU GSTM3 (11746129_a_at) / Fold change /veh GSTM3 (11746129_a_at) / RFU IL23R (11737362_x_at) / Fold change /veh IL23R (11737362_x_at) / RFU TMEM51 (11727254_a_at) / Fold change /veh TMEM51 (11727254_a_at) / RFU PIWIL2 (11732686_x_at) / Fold change /veh PIWIL2 (11732686_x_at) / RFU ORM1 (11744905_x_at) / Fold change /veh ORM1 (11744905_x_at) / RFU CCDC152 (11743942_at) / Fold change /veh CCDC152 (11743942_at) / RFU ECM1 (11717891_a_at) / Fold change /veh ECM1 (11717891_a_at) / RFU IL23R (11748794_a_at) / Fold change /veh IL23R (11748794_a_at) / RFU TNFAIP8L3 (11732012_x_at) / Fold change /veh TNFAIP8L3 (11732012_x_at) / RFU MBOAT4 (11741988_at) / Fold change /veh MBOAT4 (11741988_at) / RFU 11764193_at / Fold change /veh 11764193_at / RFU TMEM53 (11763286_at) / Fold change /veh TMEM53 (11763286_at) / RFU MAGEB2 (11727129_at) / Fold change /veh MAGEB2 (11727129_at) / RFU TMEM200A (11744735_a_at) / Fold change /veh TMEM200A (11744735_a_at) / RFU CCDC152 (11751479_a_at) / Fold change /veh CCDC152 (11751479_a_at) / RFU FAM211A (11726209_a_at) / Fold change /veh FAM211A (11726209_a_at) / RFU RGS16 (11746705_a_at) / Fold change /veh RGS16 (11746705_a_at) / RFU VCAN (11755009_s_at) / Fold change /veh VCAN (11755009_s_at) / RFU RHOB (11743442_s_at) / Fold change /veh RHOB (11743442_s_at) / RFU RGS16 (11720943_a_at) / Fold change /veh RGS16 (11720943_a_at) / RFU RGS16 (11720944_at) / Fold change /veh RGS16 (11720944_at) / RFU, VPS4B / Fold change vs veh, VPS4B / RFU, CREB1 / Fold change vs veh, CREB1 / RFU, DNAJC13 / Fold change vs veh, DNAJC13 / RFU, GNAQ / Fold change vs veh, GNAQ / RFU, CDK5R1 / Fold change vs veh, CDK5R1 / RFU, ZRANB3 / Fold change vs veh, ZRANB3 / RFU, CUL4A / Fold change vs veh, CUL4A / RFU, CCNY / Fold change vs veh, CCNY / RFU, UFL1 / Fold change vs veh, UFL1 / RFU, COG3 / Fold change vs veh, COG3 / RFU, DIAPH2 / Fold change vs veh, DIAPH2 / RFU, SKA2 / Fold change vs veh, SKA2 / RFU, AFF3 / Fold change vs veh, AFF3 / RFU, LMF1 / Fold change vs veh, LMF1 / RFU, IPO11 / Fold change vs veh, IPO11 / RFU, DFFB / Fold change vs veh, DFFB / RFU, FOXP1 / Fold change vs veh, FOXP1 / RFU, CARD8 / Fold change vs veh, CARD8 / RFU, STRN3 / Fold change vs veh, STRN3 / RFU, ADK / Fold change vs veh, ADK / RFU, RASSF2 / Fold change vs veh, RASSF2 / RFU, WIPF1 / Fold change vs veh, WIPF1 / RFU, LARP1B / Fold change vs veh, LARP1B / RFU, RASA1 / Fold change vs veh, RASA1 / RFU, RB1 / Fold change vs veh, RB1 / RFU, PPFIA1 / Fold change vs veh, PPFIA1 / RFU, MAT2A / Fold change vs veh, MAT2A / RFU, CCT5 / Fold change vs veh, CCT5 / RFU, WDR92 / Fold change vs veh, WDR92 / RFU, CUX1 / Fold change vs veh, CUX1 / RFU, TTC7A / Fold change vs veh, TTC7A / RFU, TMEM135 / Fold change vs veh, TMEM135 / RFU, DEPTOR / Fold change vs veh, DEPTOR / RFU, CPM / Fold change vs veh, CPM / RFU, DNAJB6 / Fold change vs veh, DNAJB6 / RFU, CACNA2D3 / Fold change vs veh, CACNA2D3 / RFU, DTX4 / Fold change vs veh, DTX4 / RFU, TFCP2 / Fold change vs veh, TFCP2 / RFU, GMCL1 /// GMCL1P1 / Fold change vs veh, GMCL1 /// GMCL1P1 / RFU, AEBP2 / Fold change vs veh, AEBP2 / RFU, SNHG1 /// SNORD22 /// SNORD25 /// SNORD26 /// SNORD27 /// SNORD28 /// SNORD29 /// SNORD31 / Fold change vs veh, SNHG1 /// SNORD22 /// SNORD25 /// SNORD26 /// SNORD27 /// SNORD28 /// SNORD29 /// SNORD31 / Fold change (Aza/veh), C12orf56 (ProbeSet 11735607_a_at) / Fold change (ACY-1035/veh), C12orf56 (ProbeSet 11735607_a_at) / Fold change (Aza/veh), FGFR1OP (ProbeSet 11751329_s_at) / Fold change (ACY-1035/veh), FGFR1OP (ProbeSet 11751329_s_at) / Fold change (Aza/veh), VPS36 (ProbeSet 11739960_a_at) / Fold change (ACY-1035/veh), VPS36 (ProbeSet 11739960_a_at) / RFU SYPL1 (11715823_x_at) / Fold change /veh SYPL1 (11715823_x_at) / RFU IGFBP7 (11715501_s_at) / Fold change /veh IGFBP7 (11715501_s_at) / RFU REEP3 (11722064_at) / Fold change /veh REEP3 (11722064_at) / RFU IGLL1 (11728026_x_at) / Fold change /veh IGLL1 (11728026_x_at): dose or concentration left out as unconfirmed. The following applies: ProbeSet 11743362_s_at; LIST B.

`Nc1ccc(-c2cccs2)cc1NC(=O)c1ccc2c(c1)cc(C1CC1)n2CCN1CCOCC1` [ACY-1035]: the “Fold change vs veh, ADSS” value came out at 0.95.
